Numbers after ± are expanded uncertainties.
Conditions: 323.14 K, Liquid, Vibrating tube method

CCCCCCCCCC [decane]
Conditions | mass density [kg/m3]
21395 kPa | 724.8 ± 2
21420 kPa | 724.9 ± 2
21444 kPa | 724.9 ± 2
21473 kPa | 724.8 ± 2
21501 kPa | 724.8 ± 2
21526 kPa | 725 ± 2
21647 kPa | 725 ± 2
22710 kPa | 725.7 ± 2
22733 kPa | 725.8 ± 2
22768 kPa | 725.8 ± 2
22800 kPa | 725.9 ± 2
22832 kPa | 725.9 ± 2
22860 kPa | 725.9 ± 2
22884 kPa | 725.9 ± 2
22916 kPa | 725.8 ± 2
22948 kPa | 726 ± 2
22977 kPa | 726.1 ± 2
23013 kPa | 726 ± 2
23034 kPa | 726.1 ± 2
23071 kPa | 726.1 ± 2
23103 kPa | 726.1 ± 2
23124 kPa | 726.1 ± 2
23149 kPa | 726.2 ± 2
23170 kPa | 726.2 ± 2
23191 kPa | 726.2 ± 2
23219 kPa | 726.2 ± 2
23256 kPa | 726.1 ± 2.1
23294 kPa | 726.2 ± 2.1
23332 kPa | 726.3 ± 2.1
23357 kPa | 726.2 ± 2.1
23391 kPa | 726.2 ± 2.1
23412 kPa | 726.2 ± 2.1
23442 kPa | 726.3 ± 2.1
23475 kPa | 726.4 ± 2.1
23509 kPa | 726.3 ± 2.1
23539 kPa | 726.3 ± 2.1
23578 kPa | 726.5 ± 2.1
23612 kPa | 726.3 ± 2.1
23710 kPa | 726.6 ± 2.1
23736 kPa | 726.5 ± 2.1
23762 kPa | 726.5 ± 2.1
23806 kPa | 726.6 ± 2.1
23832 kPa | 726.7 ± 2.1
23854 kPa | 726.6 ± 2.1
23881 kPa | 726.6 ± 2.1
23912 kPa | 726.7 ± 2.1
23938 kPa | 726.7 ± 2.1
23970 kPa | 726.7 ± 2.1
23996 kPa | 726.7 ± 2.1
24633 kPa | 727.3 ± 2.1
24707 kPa | 727.3 ± 2.1
24732 kPa | 727.3 ± 2.1
24765 kPa | 727.4 ± 2.1
24799 kPa | 727.2 ± 2.1
24832 kPa | 727.4 ± 2.1
24861 kPa | 727.4 ± 2.1
24899 kPa | 727.4 ± 2.1
24942 kPa | 727.4 ± 2.1
24979 kPa | 727.4 ± 2.1
25000 kPa | 727.5 ± 2.1
25022 kPa | 727.4 ± 2.1
25061 kPa | 727.6 ± 2.1
25103 kPa | 727.6 ± 2.1
25129 kPa | 727.5 ± 2.1
25160 kPa | 727.6 ± 2.1
25190 kPa | 727.7 ± 2.1
25216 kPa | 727.6 ± 2.1
25251 kPa | 727.7 ± 2.1

Source: the NIST ThermoML archive (doi:10.1021/je800110r)
